Data reported in patent US20130102595A1 (Curis, Inc., priority 2011, published 2013).

Experiments:
PI3Kα (p110α/p85α) = molecular target: T1, PI3Kα (p110α/p85α) (Homo sapiens, UniProt P42336); test: PI3Kα ADP-Glo assay; assay type: biochemical; details: 20 μM PIP2, 10 μM ATP, 30 minutes
T1 construct: GST (N); made in house; host or cells: Baculovirus-infected Sf9 cells
Method in brief: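 Luminescent ADP-Glo detection, after depletion of residual ATP, quantified ADP made by PI3Kα phosphorylating 20 μM PIP2 at 10 μM ATP. The kinase step ran 30 min at room temperature in HEPES pH 7.4 with MgCl2, DTT and orthovanadate, using baculovirus/Sf9-expressed full-length p110α/p85α complex.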

[1] = test system: HDACs (HeLa cell nuclear extracts); test: HDAC enzymatic activity, Biomol Color de Lys system; assay type: biochemical; details: 1 hour, 25° C.
Method in brief: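 IC50 from sigmoidal fit of developer-terminated fluorescence (ex 350-380/em 440-460 nm). Reaction: 1 h at room temperature (25 °C), HeLa nuclear extract as HDAC source, artificial substrate, buffer of 50 mM Tris/Cl pH 8.0 with 137 mM NaCl, 2.7 mM KCl and 1 mM MgCl2.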

SW1990 = test: Cell proliferation assay (CellTiter-Glo); assay type: cell-based; details: Homo sapiens, Pancreas, 72 hours, 0.5% fetal bovine serum, read-out: antiproliferative activity IC50, SW1990
Procedure: (§1) Cell Proliferation Assay:
(§2) Cancer cell lines were plated at 5,000 to 10,000 per well in 96-well flat bottomed plates with various concentration of compounds. The cells were incubated with compounds for 72 hours in the presence of 0.5% of fetal bovine serum. Growth inhibition was accessed by adenosine triphosphate (ATP) content assay using Promega CellTiter-Glo kit. Promega CellTiter-Glo kit is an ATP monitoring system based on firefly luciferase. Briefly, 16 μl of mammalian cell lysis and substrate solution was added to 84 μl of culture medium per well to lyse the cells and stabilize the ATP. The mixture was shaken and incubated for 30 minutes and subsequently the luminescence was measured.

Calu6 = test: Cell proliferation assay (CellTiter-Glo); assay type: cell-based; details: Homo sapiens, Calu-6; NSCLC; 72 hours, 0.5% fetal bovine serum; read-out: antiproliferative activity IC50, Calu6
Procedure: as §1, §2

WiDr = test: Cell proliferation assay (CellTiter-Glo); assay type: cell-based; details: Homo sapiens, Colon, 72 hours, 0.5% fetal bovine serum, read-out: antiproliferative activity IC50, WiDr
Procedure: as §1, §2

MDA-MB-231 = test: Cell proliferation assay (CellTiter-Glo); assay type: cell-based; details: Homo sapiens, Breast, 72 hours, 0.5% fetal bovine serum, read-out: antiproliferative activity IC50, MDA-MB-231
Procedure: as §1, §2

MiaPaca1 = test: Cell proliferation assay (CellTiter-Glo); assay type: cell-based; details: Pancreas; 72 hours, 0.5% fetal bovine serum; read-out: antiproliferative activity IC50, MiaPaca1
Procedure: as §1, §2

PANC-1 = test: Cell proliferation assay (CellTiter-Glo); assay type: cell-based; details: Homo sapiens, Pancreas, 72 hours, 0.5% fetal bovine serum, read-out: antiproliferative activity IC50, PANC-1
Procedure: as §1, §2

CFPAC-1 = test: Cell proliferation assay (CellTiter-Glo); assay type: cell-based; details: Homo sapiens, Pancreas, 72 hours, 0.5% fetal bovine serum, read-out: antiproliferative activity IC50, CFPAC-1
Procedure: as §1, §2

CaPan2 = test: Cell proliferation assay (CellTiter-Glo); assay type: cell-based; details: Homo sapiens, Capan-2; Pancreas; 72 hours, 0.5% fetal bovine serum; read-out: antiproliferative activity IC50, CaPan2
Procedure: as §1, §2

[2] = molecular target: T2, mTor serine/threonine protein kinase (Homo sapiens, UniProt P42345); test: mTor kinase radioisotope assay; assay type: biochemical; details: 70 uM ATP, 40 minutes; read-out: m-TOR IC50
T2 construct: FLAG; made in house; host or cells: Baculovirus expression system in Sf21 cells
Procedure: (F) an In Vitro Assay which-Determines the Ability of a Test Compound to Inhibit mTor Serine/Threonine Protein Kinase.
The ability of compounds to inhibit mTor activity was assayed using standard radioisotope assay for kinase. Briefly, FLAG-tagged, recombinant full-length human mTor (GenBank accession No. NM_004958) was expressed using baculovirus expression system in Sf21 cells and purified using antibody affinity column. Purified enzyme was incubated with c-terminal fragment of p70S6K as it's substrate in the presence of ATP. p33 ATP tracers were included in the assay to monitor the enzyme activity. Final assay condition was with 50 mM HEPES pH 7.5, 1 mM EGTA, 0.01% Tween 20, 2 mg/ml substrate, 3 mM Manganese Chloride and 70 uM of ATP and was carried out at room temperature for 40 minutes. The reaction was then stopped by the addition of 3% phosphoric acid solution. 10 ul of the reaction was spotted onto a P30 filtermat and washed three times for 5 minutes in 75 mM phosphoric acid and once in methanol prior to drying and scintillation counting. Different concentrations of compounds were added to reaction to assess the activity of compounds to inhibit mTor kinase. IC50 was calculated using Prism software with sigmoidal dose-response curve fitting.

HCT116 = test: Cell proliferation assay (CellTiter-Glo); assay type: cell-based; details: Homo sapiens, HCT-116; Colon; 72 hours, 0.5% fetal bovine serum; read-out: antiproliferative activity IC50, HCT116
Procedure: as §1, §2

T1 sequence (P42336 whole entry): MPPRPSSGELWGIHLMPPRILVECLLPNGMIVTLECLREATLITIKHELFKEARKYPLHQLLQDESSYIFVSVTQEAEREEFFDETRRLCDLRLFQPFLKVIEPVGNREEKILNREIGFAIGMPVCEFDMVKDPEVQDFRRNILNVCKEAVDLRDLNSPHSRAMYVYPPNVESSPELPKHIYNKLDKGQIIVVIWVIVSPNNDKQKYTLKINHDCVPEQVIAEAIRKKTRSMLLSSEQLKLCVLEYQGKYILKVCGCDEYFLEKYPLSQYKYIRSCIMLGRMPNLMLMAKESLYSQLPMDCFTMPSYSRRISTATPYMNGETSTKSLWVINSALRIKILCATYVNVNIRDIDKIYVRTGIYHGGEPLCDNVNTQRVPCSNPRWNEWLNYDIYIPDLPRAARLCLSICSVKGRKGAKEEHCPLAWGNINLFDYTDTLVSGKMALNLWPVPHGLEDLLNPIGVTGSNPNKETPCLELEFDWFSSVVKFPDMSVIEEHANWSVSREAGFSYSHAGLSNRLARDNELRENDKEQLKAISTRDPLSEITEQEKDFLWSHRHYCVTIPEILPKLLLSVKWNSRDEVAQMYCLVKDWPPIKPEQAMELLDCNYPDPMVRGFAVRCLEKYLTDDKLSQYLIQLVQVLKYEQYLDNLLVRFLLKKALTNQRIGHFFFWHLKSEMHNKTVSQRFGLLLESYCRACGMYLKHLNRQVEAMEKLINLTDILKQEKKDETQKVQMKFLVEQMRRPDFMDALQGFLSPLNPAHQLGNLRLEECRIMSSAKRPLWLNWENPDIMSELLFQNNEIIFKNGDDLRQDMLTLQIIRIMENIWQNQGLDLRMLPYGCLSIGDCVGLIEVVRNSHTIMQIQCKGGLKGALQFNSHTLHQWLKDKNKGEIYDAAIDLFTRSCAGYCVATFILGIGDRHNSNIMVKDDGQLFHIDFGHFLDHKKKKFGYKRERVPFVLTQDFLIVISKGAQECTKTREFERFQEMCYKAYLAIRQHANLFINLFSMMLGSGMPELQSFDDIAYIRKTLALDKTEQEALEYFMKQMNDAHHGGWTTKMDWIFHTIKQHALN
T1 sequence (P27986 whole entry partner): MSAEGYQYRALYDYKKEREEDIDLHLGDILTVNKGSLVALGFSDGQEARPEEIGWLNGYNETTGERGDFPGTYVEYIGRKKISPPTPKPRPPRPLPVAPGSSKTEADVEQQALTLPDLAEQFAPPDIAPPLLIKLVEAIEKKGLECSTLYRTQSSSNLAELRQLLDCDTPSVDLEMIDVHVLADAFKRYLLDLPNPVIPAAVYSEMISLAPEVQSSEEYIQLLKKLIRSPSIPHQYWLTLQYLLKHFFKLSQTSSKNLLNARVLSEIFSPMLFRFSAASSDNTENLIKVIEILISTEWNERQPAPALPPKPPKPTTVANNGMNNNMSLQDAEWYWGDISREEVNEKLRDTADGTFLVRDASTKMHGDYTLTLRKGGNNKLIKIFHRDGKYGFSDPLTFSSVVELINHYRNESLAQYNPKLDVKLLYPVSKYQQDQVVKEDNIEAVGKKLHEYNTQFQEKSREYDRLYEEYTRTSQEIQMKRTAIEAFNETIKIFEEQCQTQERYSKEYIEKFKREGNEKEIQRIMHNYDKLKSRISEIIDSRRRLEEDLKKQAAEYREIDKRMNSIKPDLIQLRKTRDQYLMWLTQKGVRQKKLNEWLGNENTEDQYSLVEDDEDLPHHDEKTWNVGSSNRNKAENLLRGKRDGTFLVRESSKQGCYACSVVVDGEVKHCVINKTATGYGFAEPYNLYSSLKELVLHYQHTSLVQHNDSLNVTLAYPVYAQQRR

CC(=O)Nc1ccc(-c2nc(N3CCOCC3)c3sc(CN(C)c4ncc(C(=O)NO)cn4)cc3n2)cn1 [Compound 112, 2-(((2-(6-acetamidopyridin-3-yl)-4-morpholinothieno[3,2-d]pyrimidin-6-yl)methyl)(methyl)amino)-N-hydroxypyrimidine-5-carboxamide]
IC50 (PI3Kα (p110α/p85α)): < 100 nM
IC50 [1]: < 100 nM
melting point: 197 to 201 °C
IC50 (SW1990): 10 to 100 nM
IC50 (Calu6): 10 to 100 nM
IC50 (WiDr): 100 to 1000 nM
IC50 (MDA-MB-231): 10 to 100 nM
IC50 (MiaPaca1): 10 to 100 nM
IC50 (PANC-1): 10 to 100 nM
IC50 (CFPAC-1): 100 to 1000 nM
IC50 (CaPan2): 100 to 1000 nM

CNc1ncc(-c2nc(N3CCOCC3)c3sc(CN(C)c4ncc(C(=O)NO)cn4)cc3n2)cn1 [Compound 116, N-hydroxy-2-(methyl((2-(2-(methylamino)pyrimidin-5-yl)-4-morpholinothieno[3,2-d]pyrimidin-6-yl)methyl)amino)pyrimidine-5-carboxamide]
IC50 (PI3Kα (p110α/p85α)): < 100 nM
IC50 [1]: < 100 nM
melting point: 183 to 187 °C
IC50 (SW1990): 10 to 100 nM
IC50 (Calu6): 10 to 100 nM
IC50 (WiDr): 10 to 100 nM
IC50 (MDA-MB-231): 10 to 100 nM
IC50 (MiaPaca1): 10 to 100 nM
IC50 (PANC-1): 10 to 100 nM
IC50 (CFPAC-1): 100 to 1000 nM
IC50 (CaPan2): 10 to 100 nM
IC50 [2]: < 100 nM

Cc1ncc(-c2nc(N3CCOCC3)c3sc(CN(C)c4ncc(C(=O)NO)cn4)cc3n2)cn1 [Compound 120, N-hydroxy-2-(methyl((2-(2-methylpyrimidin-5-yl)-4-morpholinothieno[3,2-d]pyrimidin-6-yl)methyl)amino)pyrimidine-5-carboxamide]
IC50 (PI3Kα (p110α/p85α)): < 100 nM
IC50 [1]: < 100 nM
melting point: 184 to 186 °C
IC50 (SW1990): 10 to 100 nM
IC50 (Calu6): 10 to 100 nM
IC50 (WiDr): 10 to 100 nM
IC50 (MDA-MB-231): 10 to 100 nM
IC50 (MiaPaca1): 10 to 100 nM
IC50 (PANC-1): 100 to 1000 nM
IC50 (CFPAC-1): 100 to 1000 nM
IC50 (CaPan2): 100 to 1000 nM
IC50 [2]: 100 to 1000 nM

Cc1nc(N)ncc1-c1nc(N2CCOCC2)c2sc(CN(C)c3ncc(C(=O)NO)cn3)cc2n1 [Compound 125, 2-(((2-(2-amino-4-methylpyrimidin-5-yl)-4-morpholinothieno[3,2-d]pyrimidin-6-yl)methyl)(methyl)amino)-N-hydroxypyrimidine-5-carboxamide]
IC50 (PI3Kα (p110α/p85α)): < 100 nM
IC50 [1]: < 100 nM
melting point: 195 to 198 °C
IC50 (HCT116): 10 to 100 nM

CN(Cc1cc2nc(-c3cccc(O)c3)nc(N3CCOCC3)c2s1)c1ncc(C(=O)NO)cn1 [Compound 132, N-hydroxy-2-(((2-(3-hydroxyphenyl)-4-morpholinothieno[3,2-d]pyrimidin-6-yl)methyl)(methyl)amino)pyrimidine-5-carboxamide]
IC50 (PI3Kα (p110α/p85α)): < 100 nM
IC50 [1]: < 100 nM
melting point: 175 to 181 °C
IC50 (Calu6): 10 to 100 nM
IC50 (WiDr): 100 to 1000 nM
IC50 (MDA-MB-231): 10 to 100 nM
IC50 [2]: < 100 nM

CC(=O)Nc1ccc(-c2nc(N3CCOCC3)c3sc(CN(C)c4ncc(C(=O)NO)cn4)cc3n2)cc1 [Compound 157, 2-(((2-(4-acetamidophenyl)-4-morpholinothieno[3,2-d]pyrimidin-6-yl)methyl)(methyl)amino)-N-hydroxypyrimidine-5-carboxamide]
IC50 (PI3Kα (p110α/p85α)): < 100 nM
IC50 [1]: < 100 nM
melting point: 228 to 230 °C
IC50 (Calu6): 10 to 100 nM
IC50 (WiDr): 100 to 1000 nM
IC50 [2]: < 100 nM

CN(Cc1cc2nc(-c3ccc4[nH]cnc4c3)nc(N3CCOCC3)c2s1)c1ncc(C(=O)NO)cn1 [Compound 187, 2-(((2-(1H-benzo[d]imidazol-5-yl)-4-morpholinothieno[3,2-d]pyrimidin-6-yl)methyl)(methyl)amino)-N-hydroxypyrimidine-5-carboxamide]
IC50 (PI3Kα (p110α/p85α)): < 100 nM
IC50 [1]: < 100 nM
melting point: 231 to 239 °C
IC50 (SW1990): 10 to 100 nM
IC50 (Calu6): 100 to 1000 nM
IC50 (WiDr): 10 to 100 nM
IC50 (MDA-MB-231): 100 to 1000 nM
IC50 (MiaPaca1): 10 to 100 nM
IC50 (PANC-1): 100 to 1000 nM
IC50 (CFPAC-1): 100 to 1000 nM
IC50 (CaPan2): 100 to 1000 nM

Cc1nc2ccc(-c3nc(N4CCOCC4)c4sc(CN(C)c5ncc(C(=O)NO)cn5)cc4n3)cc2[nH]1 [Compound 199, N-hydroxy-2-(methyl((2-(2-methyl-3H-benzo[d]imidazol-5-yl)-4-morpholinothieno[3,2-d]pyrimidin-6-yl)methyl)amino)pyrimidine-5-carboxamide]
IC50 (PI3Kα (p110α/p85α)): < 100 nM
IC50 [1]: < 100 nM
melting point: 230 to 233 °C
IC50 (SW1990): 10 to 100 nM
IC50 (Calu6): 100 to 1000 nM
IC50 (WiDr): 10 to 100 nM
IC50 (MDA-MB-231): 10 to 100 nM
IC50 (MiaPaca1): 10 to 100 nM
IC50 (PANC-1): 100 to 1000 nM
IC50 (CaPan2): 1000 to 10000 nM

CN(Cc1cc2nc(-c3ccc(OCCO)nc3)nc(N3CCOCC3)c2s1)c1ncc(C(=O)NO)cn1 [Compound 256, N-Hydroxy-2-(((2-(6-(2-hydroxyethoxy)pyridin-3-yl)-4-morpholinothieno[3,2-d]pyrimidin-6-yl)methyl)(methyl)amino)pyrimidine-5-carboxamide]
IC50 (PI3Kα (p110α/p85α)): < 100 nM
IC50 [1]: < 100 nM
melting point: 143 to 145 °C
IC50 [2]: > 10000 nM

COc1ncc(-c2nc(N3CCOCC3)c3sc(CN(C)c4ncc(C(=O)NO)cn4)cc3n2)cn1 [Compound 261, N-Hydroxy-2-(((2-(2-methoxypyrimidin-5-yl)-4-morpholinothieno[3,2-d]pyrimidin-6-yl)methyl)(methyl)amino)pyrimidine-5-carboxamide]
IC50 (PI3Kα (p110α/p85α)): < 100 nM
IC50 [1]: < 100 nM
melting point: 215 to 220 °C
IC50 (MDA-MB-231): 10 to 100 nM

CN(Cc1cc2nc(-c3ccc(N)c(CO)c3)nc(N3CCOCC3)c2s1)c1ncc(C(=O)NO)cn1 [Compound 285, 2-(((2-(4-Amino-3-(hydroxymethyl)phenyl)-4-morpholinothieno[3,2-d]pyrimidin-6-yl)methyl)(methyl)amino)-N-hydroxypyrimidine-5-carboxamide]
IC50 (PI3Kα (p110α/p85α)): < 100 nM
IC50 [1]: < 100 nM
melting point: 195 to 200 °C
IC50 [2]: < 100 nM

C[C@@H](O)c1cccc(-c2nc(N3CCOCC3)c3sc(CN(C)c4ncc(C(=O)NO)cn4)cc3n2)c1 [Compound 297, (R)—N-Hydroxy-2-(((2-(3-(1-hydroxyethyl)phenyl)-4-morpholinothieno[3,2-d]pyrimidin-6-yl)methyl)(methyl)amino)pyrimidine-5-carboxamide]
IC50 (PI3Kα (p110α/p85α)): 100 to 1000 nM
IC50 [1]: < 100 nM
melting point: 169 to 173 °C
IC50 [2]: 100 to 1000 nM

CN(Cc1cc2nc(-c3ccc4[nH]c(C(F)(F)F)nc4c3)nc(N3CCOCC3)c2s1)c1ncc(C(=O)NO)cn1 [Compound 318]
IC50 (PI3Kα (p110α/p85α)): < 100 nM
IC50 [1]: < 100 nM
melting point: > 300 °C
IC50 [2]: 100 to 1000 nM
